Literature values in patent US6627153B1, “Integrated assay for organ function, drugs and/or one or more metabolites” (priority 1999, dated 2003).

Conditions: following oral administration; within the first 24 hours

absorbed drug eliminated via the renal route: 90%
Compound: CN(C)C(=N)N=C(N)N [Metformin]
